Results taken from ChEMBL document CHEMBL2429838, “Synthesis and antitumor activity evaluation of 2-arylisoquinoline-1,3(2H,4H)-diones in vitro and in vivo” (Med Chem Res, 2013).

Columns and labels:
[1] = system: A-431; experiment: Cytotoxicity against human A431 cells after 48 hrs by MTT assay; type: functional, cell-based; conditions: A-431, 48 h
[2] = system: PC-3; experiment: Cytotoxicity against human PC3 cells after 48 hrs by MTT assay; type: functional, cell-based; conditions: PC-3, 48 h
[3] = system: A549; experiment: Cytotoxicity against human A549 cells after 48 hrs by MTT assay; type: functional, cell-based; conditions: A549, 48 h
[4] = system: PANC-1; experiment: Antitumor activity against human PANC1 cells xenografted in po dosed mouse assessed as tumor growth inhibition administered qd for 13 days measured up to 21 days; type: functional, organism-based
[5] = system: PANC-1; experiment: Antitumor activity against human PANC1 cells xenografted in mouse assessed as tumor growth inhibition at 25 mg/kg, po qd for 13 days measured up to 21 days; type: functional; conditions: read-out: TGI
[6] = system: PANC-1; experiment: Antitumor activity against human PANC1 cells xenografted in mouse assessed as tumor growth inhibition at 5 mg/kg, po qd for 13 days measured up to 21 days; type: functional; conditions: read-out: TGI

Compound | IC50 [1] [µM] | IC50 [2] [µM] | IC50 [3] [µM] | TGI [4] | inhibition in vivo at 25 mg/kg [5] [%] | inhibition in vivo at 5 mg/kg [6] [%]
O=C(Nc1nc2ccc(N3C(=O)Cc4ccc(F)cc4C3=O)cc2s1)C1CC1 | 8.64 | 11.7 | 12.6 | – | – | –
O=C(Nc1ccc2nc(NC(=O)C3CC3)sc2c1)c1c(Cl)cccc1Cl | – | 2.01 | 9 | – | – | –
COc1ccc(N2C(=O)Cc3cc(OC)cc(OC)c3C2=O)cc1 | 78.9 | > 100 | > 100 | – | – | –
COc1cc2c(c(OC)c1OC)C(=O)N(c1ccc3nc(NC(=O)C4CC4)sc3c1)C(=O)C2 | 7.58 | 20.6 | 16.2 | – | – | –
COc1cc2c(c(OC)c1)C(=O)N(c1ccc3nc(NC(C)=O)sc3c1)C(=O)C2 | 11.9 | 11.2 | 20.5 | – | – | –
C#Cc1cccc(N2C(=O)Cc3cc(OC)cc(OC)c3C2=O)c1 | 60.4 | 28.9 | > 100 | – | – | –
COc1cc2c(c(OC)c1)C(=O)N(c1ccc3nc(NC(=O)C4CC4)sc3c1)C(=O)C2 | 7.01 | 7.7 | 12.7 | Dose-dependent effect | 31.5 | 23.7
COc1cc2c(c(OC)c1)C(=O)N(c1ccc(C(F)(F)F)cc1)C(=O)C2 | 32.8 | 17.1 | 32.1 | – | – | –
O=C(Nc1nc2ccc(N3C(=O)Cc4ccccc4C3=O)cc2s1)C1CC1 | 46.8 | 16.7 | 22.3 | – | – | –
COc1ccc2c(c1)CC(=O)N(c1ccc3nc(NC(=O)C4CC4)sc3c1)C2=O | 12 | 10.5 | 20.7 | – | – | –
COc1cc2c(c(OC)c1)C(=O)N(c1cccc(C(F)(F)F)c1)C(=O)C2 | 62.5 | 45.3 | > 100 | – | – | –
COc1cc2c(c(OC)c1)C(=O)N(c1ccc(C)cc1)C(=O)C2 | 47.6 | 21 | 43.6 | – | – | –
